± gives the standard deviation of the averaged measurements.
Tests used:
Assay in all cases: level (log10 ratio to DMSO vehicle control); higher = higher biomarker level / cell amount than vehicle control
[1] = compound: FC(F)(F)C(F)(F)C(F)(F)C(F)(F)CCI [1H,1H,2H,2H-Perfluorohexyl iodide]; settings: in DMSO
Method: (§1)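 BioMAP Diversity Plus panel of 12 human primary cell co-culture systems (3C, 4H, LPS, SAg, BT, BF4T, BE3C, CASM3C, HDF3CGF, KF3CT, MyoF, Mphg). Compounds were added 1 h before stimulation and left for 24 h (MyoF 48 h; BT 72 h for soluble read-outs or 6 d for IgG). Biomarkers were read by ELISA, cytotoxicity by SRB, PBMC viability and proliferation by Alamar Blue. Each well value was divided by the mean of 8 DMSO control wells on the same plate and log10 transformed; duplicate blinded samples were tested at 4 concentrations.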

[2] = compound: FC(F)(F)COC(OCC(F)(F)F)OCC(F)(F)F [tris(Trifluoroethoxy)methane]; settings: in DMSO
Method: as §1

[3] = compound: Cc1ccc(S(=O)(=O)OCC(F)(F)C(F)(F)C(F)(F)C(F)(F)C(F)(F)C(F)F)cc1 [1H,1H,7H-Perfluoroheptyl 4-methylbenzenesulfonate]; settings: in DMSO
Method: as §1

Perfluorooctanoic acid = compound: O=C(O)C(F)(F)C(F)(F)C(F)(F)C(F)(F)C(F)(F)C(F)(F)C(F)(F)F [Perfluorooctanoic acid]; settings: in DMSO
Method: as §1

[4] = compound: C=C(C)C(=O)OCC(F)(F)C(F)(F)C(F)(F)F [2,2,3,3,4,4,4-Heptafluorobutyl methacrylate]; settings: in DMSO
Method: as §1

[5] = compound: C=CC(=O)OCC(F)(F)C(F)(F)C(F)(F)C(F)(F)COC(=O)C=C [1H,1H,6H,6H-Perfluorohexane-1,6-diol diacrylate]; settings: 6700 nM; in DMSO
Method: as §1

[6] = compound: OCCC(F)(F)C(F)(F)C(F)(F)C(F)(F)C(F)(F)C(F)(F)C(F)(F)C(F)(F)F [8:2 Fluorotelomer alcohol]; settings: 6700 nM; in DMSO
Method: as §1

[7] = compound: C=CC(=O)OCC(F)(F)C(F)(F)C(F)(F)C(F)(F)C(F)(F)C(F)(F)C(F)(F)C(F)F [1H,1H,9H-Perfluorononyl acrylate]; settings: in DMSO
Method: as §1

Test System | level (log10) ([1]; 6700 nM) | level (log10) ([1]; 20000 nM) | level (log10) ([1]; 60000 nM) | level (log10) ([2]; 6700 nM) | level (log10) ([2]; 20000 nM) | level (log10) ([2]; 60000 nM) | level (log10) ([3]; 6700 nM) | level (log10) ([3]; 20000 nM) | level (log10) ([3]; 60000 nM) | level (log10) (Perfluorooctanoic acid; 6700 nM) | level (log10) (Perfluorooctanoic acid; 20000 nM) | level (log10) (Perfluorooctanoic acid; 60000 nM) | level (log10) ([4]; 6700 nM) | level (log10) ([4]; 20000 nM) | level (log10) ([4]; 60000 nM) | level (log10) [5] | level (log10) [6] | level (log10) ([7]; 6700 nM) | level (log10) ([7]; 20000 nM) | level (log10) ([7]; 60000 nM)
BT:sIL-6 | 0.0605 ± 0.036 | 0.0075 ± 0.0064 | -0.0525 ± 0.00071 | -0.006 ± 0.037 | 0.0005 ± 0.0092 | -0.0105 ± 0.11 | 0.0155 ± 0.011 | -0.0245 ± 0.069 | -0.0975 ± 0.021 | 0.024 ± 0.03 | -0.0095 ± 0.035 | 0.0025 ± 0.0078 | 0.035 ± 0.0085 | -0.0015 ± 0.028 | -0.015 ± 0.041 | -0.546 ± 0.044 | 0.0665 ± 0.013 | -0.073 ± 0.018 | -0.269 ± 0.07 | -0.693 ± 0.5
BF4T:tPA | -0.0025 ± 0.0092 | 0.005 ± 0.0042 | 0.0475 ± 0.053 | 0.0025 ± 0.022 | -0.0105 ± 0.016 | -0.004 ± 0.0014 | -0.0305 ± 0.025 | -0.0255 ± 0.022 | -0.0555 ± 0.025 | -0.065 ± 0.05 | -0.0715 ± 0.03 | -0.093 ± 0.031 | -0.0165 ± 0.032 | 0.0025 ± 0.00071 | 0.012 ± 0.023 | -0.0425 ± 0.0021 | -0.103 ± 0.029 | -0.0135 ± 0.028 | -0.006 ± 0.011 | -0.0395 ± 0.026
BF4T:Keratin 8/18 | 0.0015 ± 0.022 | -0.0045 ± 0.005 | 0.003 ± 0.033 | 0.0035 ± 0.032 | 0.0035 ± 0.021 | 0.01 ± 0.024 | 0.0085 ± 0.039 | 0.005 ± 0.028 | -0.0285 ± 0.028 | -0.0045 ± 0.012 | -0.0025 ± 0.0092 | 0.0025 ± 0.022 | -0.013 ± 0.035 | -0.029 ± 0.014 | -0.0245 ± 0.039 | 0.0065 ± 0.029 | -0.008 ± 0.0028 | -0.022 ± 0.013 | -0.007 ± 0.013 | -0.0385 ± 0.037
4H:SRB | 0.0015 ± 0.0035 | -0.0045 ± 0.026 | 0.0005 ± 0.0078 | -0.0055 ± 0.0021 | -0.004 ± 0.0042 | -0.011 ± 0.017 | 0.0005 ± 0.026 | -0.002 ± 0.011 | -0.0605 ± 0.0078 | -0.013 ± 0.0071 | -0.004 ± 0.023 | -0.038 ± 0.031 | -0.0025 ± 0.005 | -0.005 ± 0.0042 | -0.001 ± 0.0014 | -0.0075 ± 0.0035 | -0.014 ± 0.0042 | -0.008 ± 0.0042 | -0.008 ± 0.0014 | -0.0235 ± 0.0021
BF4T:CD54/ICAM-1 | -0.0025 ± 0.0035 | -0.0095 ± 0.0021 | -0.002 ± 0.0057 | -0.007 ± 0.017 | 0 ± 0.038 | -0.017 ± 0.017 | -0.0055 ± 0.018 | -0.01 ± 0.0028 | -0.021 ± 0.0085 | -0.0115 ± 0.0064 | -0.0025 ± 0.012 | -0.014 ± 0.028 | -0.0025 ± 0.022 | -0.0085 ± 0.021 | -0.005 ± 0.023 | -0.0575 ± 0.0021 | -0.0365 ± 0.015 | -0.0365 ± 0.033 | -0.0385 ± 0.049 | -0.0455 ± 0.019
BF4T:IL-1alpha | 0.001 ± 0.0071 | 0.0085 ± 0.0092 | 0.019 ± 0.024 | -0.0065 ± 0.013 | -0.0115 ± 0.013 | 0.003 ± 0.0099 | -0.008 ± 0.0085 | 0.022 ± 0.018 | 0.04 ± 0.034 | -0.009 ± 0.0057 | -0.0125 ± 0.018 | -0.0055 ± 0.018 | -0.005 ± 0.014 | -0.009 ± 0.0014 | 0.002 ± 0.025 | -0.0155 ± 0.025 | 0.005 | 0.007 ± 0.0071 | 0.017 ± 0.014 | 0.005 ± 0.013
BF4T:uPA | -0.0205 ± 0.0021 | -0.0145 ± 0.013 | 0.0115 ± 0.035 | 0.001 ± 0.0099 | -0.017 ± 0.011 | -0.0095 ± 0.00071 | -0.0185 ± 0.00071 | -0.01 ± 0.0042 | -0.0165 ± 0.0064 | -0.0245 ± 0.023 | -0.0315 ± 0.016 | -0.0185 ± 0.013 | -0.01 | -0.017 ± 0.017 | -0.007 ± 0.0085 | -0.02 ± 0.035 | -0.047 ± 0.0057 | -0.0055 ± 0.023 | -0.0075 ± 0.018 | -0.002 ± 0.018

— the supplement of paper PMC10331698
